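Protocol summary: plate cells (96-well), add compound at 5 concentrations, incubate 48 h, interpolate endpoints linearly. At the GI50, growth is halved.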 Calls of active or inactive are those of the source. Rule as the data show it: active = GI50 up to about 1.1 µM and inactive = higher.
Assays:
Assay in all cases: inhibition of tumour cell growth, NCI panel, 48 h
[1] = system: TK-10
[2] = system: IGROV-1
[3] = system: SF-295
[4] = system: HT-29
[5] = system: K562
[6] = system: UACC-62
[7] = system: HCT-116
[8] = system: EKVX
[9] = system: M14
[10] = system: CCRF-CEM
[11] = system: SNB-75
[12] = system: SNB-19
[13] = system: HL-60
[14] = system: A498
[15] = system: CAKI-1
[16] = system: COLO 205
[17] = system: KM12
[18] = system: RXF 393
[19] = system: A549
[20] = system: MOLT-4

Measured: GI50

O=C(NC1C=Nc2ccc([N+](=O)[O-])cc2NC1=O)c1cc(Cl)cc([N+](=O)[O-])c1 (stereo not given)
inactive: [1] > 100 µM | [2] > 100 µM | [3] > 100 µM | [4] > 100 µM | [5] 38.8 µM | [6] 44.2 µM | [7] > 100 µM | [8] 94.8 µM | [9] > 100 µM | [10] 20.8 µM | [11] > 100 µM | [12] > 100 µM | [13] 12.9 µM | [14] > 100 µM | [15] > 100 µM | [16] 59.3 µM | [17] 54.3 µM | [18] > 100 µM | [19] > 100 µM | [20] 41.6 µM

COCCCNc1nc(N)c(C#N)c(C#N)c1C#N
inactive: [1] > 10 µM | [2] > 10 µM | [3] > 10 µM | [4] > 10 µM | [5] 2.72 µM | [6] > 10 µM | [7] > 10 µM | [8] > 10 µM | [9] > 10 µM | [10] 2.48 µM | [11] > 10 µM | [12] > 10 µM | [13] 4.47 µM | [14] > 10 µM | [15] > 10 µM | [16] > 10 µM | [17] > 10 µM | [18] > 10 µM | [19] > 10 µM | [20] > 10 µM

Source: ChEMBL document CHEMBL1201862, “PubChem BioAssay data set” (2004)
